Test results as given in BindingDB's records for doi:10.1124/jpet.103.062836 (Bayer Healthcare, 2004).
pKi: −log10 of the molar value.

How the values were obtained:
[1] = molecular target: Cannabinoid receptor 2 (Homo sapiens, UniProt P34972)
[2] = molecular target: Cannabinoid receptor 1 (Rattus norvegicus, UniProt P20272)
Cannabinoid receptor 1, sequence (P20272 whole entry): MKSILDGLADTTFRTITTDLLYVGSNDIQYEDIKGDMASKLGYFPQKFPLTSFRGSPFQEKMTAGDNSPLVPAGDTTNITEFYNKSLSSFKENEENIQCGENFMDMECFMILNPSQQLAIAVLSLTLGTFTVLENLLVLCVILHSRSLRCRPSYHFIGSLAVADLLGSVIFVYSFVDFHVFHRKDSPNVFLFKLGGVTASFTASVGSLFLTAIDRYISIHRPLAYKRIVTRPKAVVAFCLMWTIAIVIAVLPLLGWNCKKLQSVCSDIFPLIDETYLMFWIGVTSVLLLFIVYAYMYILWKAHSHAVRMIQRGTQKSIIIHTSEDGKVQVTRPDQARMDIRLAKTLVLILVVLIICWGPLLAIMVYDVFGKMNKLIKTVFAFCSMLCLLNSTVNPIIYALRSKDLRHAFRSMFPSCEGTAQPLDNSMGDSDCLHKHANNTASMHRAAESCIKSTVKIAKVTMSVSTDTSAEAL

Cannabinoid receptor 2, sequence (P34972 whole entry): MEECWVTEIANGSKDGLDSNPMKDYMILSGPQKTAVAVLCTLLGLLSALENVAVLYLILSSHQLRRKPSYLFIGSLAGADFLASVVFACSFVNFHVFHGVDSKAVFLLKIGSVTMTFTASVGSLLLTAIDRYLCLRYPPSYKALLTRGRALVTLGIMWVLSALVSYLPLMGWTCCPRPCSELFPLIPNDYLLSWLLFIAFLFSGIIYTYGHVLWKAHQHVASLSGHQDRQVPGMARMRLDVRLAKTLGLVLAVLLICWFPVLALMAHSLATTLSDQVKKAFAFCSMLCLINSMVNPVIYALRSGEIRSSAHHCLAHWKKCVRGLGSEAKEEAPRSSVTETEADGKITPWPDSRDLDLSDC

`N#Cc1c(Oc2cccc(OS(=O)(=O)CCCC(F)(F)F)c2)cccc1C(F)(F)F` was tested, and the pKi [1] was 7.34 and the pKi [2] was 7.26.
